Laboratory results taken from ChEMBL document CHEMBL4610120, “New Broad-Spectrum Antibiotics Containing a Pyrrolobenzodiazepine Ring with Activity against Multidrug-Resistant Gram-Negative Bacteria” (J Med Chem, 2020).
Converted amounts (≈) assume the structure as drawn. The source made the active and inactive calls. No cut-off for these calls is given here.

Legend:
Acinetobacter baumannii [1] = assay: Antimicrobial activity against Acinetobacter baumannii ATCC 17978 by microdilution broth method; assay type: functional
Acinetobacter baumannii [2] = assay: Antimicrobial activity against multidrug-resistant Acinetobacter baumannii AYE by microdilution broth method; assay type: functional
Klebsiella pneumoniae [3] = assay: Antimicrobial activity against Klebsiella pneumoniae M6 by microdilution broth method; assay type: functional
Klebsiella pneumoniae [4] = assay: Antimicrobial activity against multidrug-resistant Klebsiella pneumoniae NCTC 13368 by microdilution broth method; assay type: functional
Pseudomonas aeruginosa [5] = assay: Antimicrobial activity against Pseudomonas aeruginosa PAO1 by microdilution broth method; assay type: functional
Pseudomonas aeruginosa [6] = assay: Antimicrobial activity against multidrug-resistant Pseudomonas aeruginosa NCTC 13437 by microdilution broth method; assay type: functional
Enterococcus faecium = assay: Antibacterial activity against vancomycin resistant Enterococcus faecium NCTC 12204 by microdilution broth method; assay type: functional
Enterococcus faecalis [7] = assay: Antibacterial activity against vancomycin resistant Enterococcus faecalis NCTC 12201 by microdilution broth method; assay type: functional
Enterococcus faecalis [8] = assay: Antibacterial activity against vancomycin sensitive Enterococcus faecalis NCTC 775 by microdilution broth method; assay type: functional
Staphylococcus aureus [9] = assay: Antibacterial activity against methicillin resistant Staphylococcus aureus NCTC 13616 by microdilution broth method; assay type: functional
Staphylococcus aureus [10] = assay: Antibacterial activity against methicillin resistant Staphylococcus aureus NCTC 13277 by microdilution broth method; assay type: functional
Staphylococcus aureus [11] = assay: Antibacterial activity against methicillin sensitive Staphylococcus aureus NCTC 6571 by microdilution broth method; assay type: functional
DNA [12] = assay: Stabilization of 5'-FAM-TAT-ATA-TAG-ATA-TTT-TTT-TAT-CTA-TAT-ATA-3'-TAMRA DNA (unknown origin) assessed as reduction in change in melting temperature at 1:1 to 5:1 ligand to DNA ratio measured after 3 hrs by FRET-based assay relative to control; assay type: ADME, nucleic-acid assay
DNA [13] = assay: Stabilization of 5'-FAM-TAT-AGA-TAT-AGA-TAT-TTT-ATA-TCT-ATA-TCT-ATA-3'-TAMRA DNA (unknown origin) assessed as reduction in change in melting temperature at 1:1 to 5:1 ligand to DNA ratio measured after 3 hrs by FRET-based assay relative to control; assay type: ADME, nucleic-acid assay
[14] = Cytotoxicity against human WI38 cells assessed as cell viability at 20 uM measured after 24 hrs by MTT assay relative to control; assay type: cell-based, WI-38; conditions: read-out: Activity
[15] = Selectivity ratio of cytotoxicity against human WI38 cells to MIC for Acinetobacter baumannii ATCC 17978; assay type: toxicity, cell-based
[16] = Selectivity ratio of cytotoxicity against human WI38 cells to MIC for multidrug-resistant Acinetobacter baumannii AYE; assay type: toxicity, cell-based
[17] = Selectivity ratio of cytotoxicity against human WI38 cells to MIC for Klebsiella pneumoniae M6; assay type: toxicity, cell-based
[18] = Selectivity ratio of cytotoxicity against human WI38 cells to MIC for multidrug-resistant Klebsiella pneumoniae NCTC 13368; assay type: toxicity, cell-based
[19] = Selectivity ratio of cytotoxicity against human WI38 cells to MIC for Pseudomonas aeruginosa PAO1; assay type: toxicity, cell-based
[20] = Selectivity ratio of cytotoxicity against human WI38 cells to MIC for multidrug-resistant Pseudomonas aeruginosa NCTC 13437; assay type: toxicity, cell-based
[21] = Selectivity ratio of cytotoxicity against human WI38 cells to MIC for vancomycin resistant Enterococcus faecium NCTC 12204; assay type: toxicity, cell-based
[22] = Selectivity ratio of cytotoxicity against human WI38 cells to MIC for vancomycin resistant Enterococcus faecalis NCTC 12201; assay type: toxicity, cell-based
[23] = Selectivity ratio of cytotoxicity against human WI38 cells to MIC for vancomycin sensitive Enterococcus faecalis NCTC 775; assay type: toxicity, cell-based
[24] = Selectivity ratio of cytotoxicity against human WI38 cells to MIC for methicillin resistant Staphylococcus aureus NCTC 13616; assay type: toxicity, cell-based
[25] = Selectivity ratio of cytotoxicity against human WI38 cells to MIC for methicillin resistant Staphylococcus aureus NCTC 13277; assay type: toxicity, cell-based
[26] = Selectivity ratio of cytotoxicity against human WI38 cells to MIC for methicillin sensitive Staphylococcus aureus NCTC 6571; assay type: toxicity, cell-based
[27] = target: T1, Protein RecA (Escherichia coli K-12) (UniProt P0A7G6); assay: Induction of Escherichia coli K12 MG1655 recA promotor measured at 30 mins interval for 20 hrs by fluorescence assay relative to control; conditions: Escherichia coli str. K-12 substr. MG1655
T1 sequence (whole entry): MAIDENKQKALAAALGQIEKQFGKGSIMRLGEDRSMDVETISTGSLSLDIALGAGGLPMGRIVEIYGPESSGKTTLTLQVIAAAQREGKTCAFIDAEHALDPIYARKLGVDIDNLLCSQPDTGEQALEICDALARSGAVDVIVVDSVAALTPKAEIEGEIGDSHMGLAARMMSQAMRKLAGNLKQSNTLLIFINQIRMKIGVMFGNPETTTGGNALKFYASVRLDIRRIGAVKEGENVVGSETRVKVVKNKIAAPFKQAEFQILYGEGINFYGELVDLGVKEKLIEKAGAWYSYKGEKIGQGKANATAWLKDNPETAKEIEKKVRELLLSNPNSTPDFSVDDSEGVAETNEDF

[28] = target: T2, LexA repressor (Escherichia coli) (UniProt P0A7C2); assay: Induction of Escherichia coli K12 MG1655 lexA promotor measured at 30 mins interval for 20 hrs by fluorescence assay relative to control; conditions: Escherichia coli str. K-12 substr. MG1655
T2 sequence (whole entry): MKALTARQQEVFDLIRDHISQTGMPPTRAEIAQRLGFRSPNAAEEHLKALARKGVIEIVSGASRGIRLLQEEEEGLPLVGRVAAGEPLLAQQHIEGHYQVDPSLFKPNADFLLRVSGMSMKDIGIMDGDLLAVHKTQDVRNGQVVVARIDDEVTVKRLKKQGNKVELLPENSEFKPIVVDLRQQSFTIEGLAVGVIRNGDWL

[29] = target: T3, DNA repair protein RecN (Escherichia coli) (UniProt P05824); assay: Induction of Escherichia coli K12 MG1655 recN promotor measured at 30 mins interval for 20 hrs by fluorescence assay relative to control; conditions: Escherichia coli str. K-12 substr. MG1655
T3 sequence (whole entry): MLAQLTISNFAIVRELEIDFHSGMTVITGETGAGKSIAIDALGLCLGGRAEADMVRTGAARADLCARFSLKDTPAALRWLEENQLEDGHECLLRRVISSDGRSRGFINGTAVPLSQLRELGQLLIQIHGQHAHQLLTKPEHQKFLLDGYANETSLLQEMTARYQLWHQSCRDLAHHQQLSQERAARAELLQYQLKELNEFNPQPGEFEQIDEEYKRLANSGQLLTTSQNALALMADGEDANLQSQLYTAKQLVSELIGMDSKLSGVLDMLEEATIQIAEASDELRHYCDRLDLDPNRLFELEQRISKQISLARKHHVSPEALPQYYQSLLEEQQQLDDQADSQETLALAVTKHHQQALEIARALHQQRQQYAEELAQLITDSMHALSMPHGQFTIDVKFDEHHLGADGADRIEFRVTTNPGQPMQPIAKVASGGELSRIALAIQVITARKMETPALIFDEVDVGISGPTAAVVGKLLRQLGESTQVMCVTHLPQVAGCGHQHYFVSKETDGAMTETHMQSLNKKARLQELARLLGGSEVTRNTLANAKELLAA

[30] = target: T4, Cell division inhibitor SulA (Escherichia coli K-12) (UniProt P0AFZ5); assay: Induction of Escherichia coli K12 MG1655 sulA promotor measured at 30 mins interval for 20 hrs by fluorescence assay relative to control; conditions: Escherichia coli str. K-12 substr. MG1655
T4 sequence (whole entry): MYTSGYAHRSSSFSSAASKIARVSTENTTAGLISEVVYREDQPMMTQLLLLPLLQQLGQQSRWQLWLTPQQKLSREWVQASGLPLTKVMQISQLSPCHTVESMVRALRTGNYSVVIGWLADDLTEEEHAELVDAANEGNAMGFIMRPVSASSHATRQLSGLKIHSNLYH

Compound | MIC (Acinetobacter baumannii [1]) [µg/mL] | MIC (Acinetobacter baumannii [2]) [µg/mL] | MIC (Klebsiella pneumoniae [3]) [µg/mL] | MIC (Klebsiella pneumoniae [4]) [µg/mL] | MIC (Pseudomonas aeruginosa [5]) [µg/mL] | MIC (Pseudomonas aeruginosa [6]) [µg/mL] | MIC (Enterococcus faecium) [µg/mL] | MIC (Enterococcus faecalis [7]) [µg/mL] | MIC (Enterococcus faecalis [8]) [µg/mL] | MIC (Staphylococcus aureus [9]) [µg/mL] | MIC (Staphylococcus aureus [10]) [µg/mL] | MIC (Staphylococcus aureus [11]) [µg/mL] | fold change (FC) (DNA [12]) | fold change (FC) (DNA [13]) | viability at 24 h, 20 µM [14] [%] | fold change (FC) [27] | fold change (FC) [28] | fold change (FC) [29] | fold change (FC) [30] | Activity [27] | other results
COc1cc2c(cc1OCCCC(=O)Nc1cc(C(=O)Nc3ccc(-c4cc(C(=O)N5CCOCC5)n(C)c4)cc3)n(C)c1)N=C[C@@H]1CCCN1C2=O | 4 (≈ 5.54 µM) | 2 (≈ 2.77 µM) | 2 (≈ 2.77 µM) | 32 (≈ 44.3 µM) | > 128 | > 128 | ≤ 0.125 | ≤ 0.125 | ≤ 0.125 | ≤ 0.125 | ≤ 0.125 | ≤ 0.125 | 3 to 4 | 3 to 4 | > 85 | – | – | – | – | – | selectivity ratio [15]: 10; selectivity ratio [16]: 10; selectivity ratio [17]: 10; selectivity ratio [18]: 10; selectivity ratio [19]: 10; selectivity ratio [20]: 10; selectivity ratio [21]: 100; selectivity ratio [22]: 100; selectivity ratio [23]: 100; selectivity ratio [24]: 100; selectivity ratio [25]: 100; selectivity ratio [26]: 100
CO[C@@H]1[C@@H](OC(N)=O)[C@@H](O)[C@H](Oc2ccc3c(O)c(NC(=O)c4ccc(O)c(CC=C(C)C)c4)c(=O)oc3c2C)OC1(C)C | – | – | – | – | – | – | – | – | – | – | – | – | – | – | – | 20 to 35 | 5 to 13 | 14 to 32 | 17 to 41 | – | –
CCN(CC)C(=O)c1cc2cc(NC(=O)c3cc(NC(=O)CCCOc4cc5c(cc4OC)C(=O)N4CCC[C@H]4C=N5)cn3C)ccc2o1 | 4 (≈ 5.98 µM) | 4 (≈ 5.98 µM) | 8 (≈ 12 µM) | 64 (≈ 95.7 µM) | 128 (≈ 191 µM) | 32 (≈ 47.9 µM) | ≤ 0.125 | ≤ 0.125 | 0.25 (≈ 0.374 µM) | 0.25 (≈ 0.374 µM) | 0.5 (≈ 0.748 µM) | ≤ 0.125 | 3 to 4 | 3 to 4 | > 85 | – | – | – | – | – | selectivity ratio [15]: 10; selectivity ratio [16]: 10; selectivity ratio [17]: 10; selectivity ratio [18]: 10; selectivity ratio [19]: 10; selectivity ratio [20]: 10; selectivity ratio [21]: 100; selectivity ratio [22]: 100; selectivity ratio [23]: 100; selectivity ratio [24]: 100; selectivity ratio [25]: 100; selectivity ratio [26]: 100
C[C@H]1c2cccc(O)c2C(=O)C2=C(O)[C@]3(O)C(=O)C(C(N)=O)=C(O)[C@@H](N(C)C)[C@@H]3[C@@H](O)[C@@H]21 | – | – | – | – | – | – | – | – | – | – | – | – | – | – | – | – | – | – | – | inactive | Activity [28]: inactive; Activity [29]: inactive; Activity [30]: inactive
COc1c(N2C[C@@H]3CCCN[C@@H]3C2)c(F)cc2c(=O)c(C(=O)O)cn(C3CC3)c12 | – | – | – | – | – | – | – | – | – | – | – | – | – | – | – | 20 to 35 | 5 to 13 | 14 to 32 | 17 to 41 | – | –
C[C@H]1COc2c(N3CCN(C)CC3)c(F)cc3c(=O)c(C(=O)O)cn1c23 | – | – | – | – | – | – | – | – | – | – | – | – | – | – | – | 20 to 35 | 5 to 13 | 14 to 32 | 17 to 41 | – | –
CCn1cc(C(=O)O)c(=O)c2cc(F)c(N3CCNCC3)cc21 | – | – | – | – | – | – | – | – | – | – | – | – | – | – | – | 20 to 35 | 5 to 13 | 14 to 32 | 17 to 41 | – | –
COC(=O)c1cc(NC(=O)c2cc(NC(=O)CCCOc3cc4c(cc3OC)C(=O)N3CCC[C@H]3C=N4)cn2C)cn1C | 128 (≈ 217 µM) | 128 (≈ 217 µM) | > 128 | > 128 | 128 (≈ 217 µM) | > 128 | 0.5 (≈ 0.847 µM) | 0.5 (≈ 0.847 µM) | 1 (≈ 1.69 µM) | 1 (≈ 1.69 µM) | 2 (≈ 3.39 µM) | 0.5 (≈ 0.847 µM) | 3 to 4 | 3 to 4 | 35 | – | – | – | – | – | –
CO[C@H]1/C=C/O[C@@]2(C)Oc3c(C)c(O)c4c(O)c(c(/C=N/N5CCN(C)CC5)c(O)c4c3C2=O)NC(=O)/C(C)=C\C=C\[C@H](C)[C@H](O)[C@@H](C)[C@@H](O)[C@@H](C)[C@H](OC(C)=O)[C@@H]1C | – | – | – | – | – | – | – | – | – | – | – | – | – | – | – | – | – | – | – | inactive | Activity [28]: inactive; Activity [29]: inactive; Activity [30]: inactive
CC1(C)S[C@@H]2[C@H](NC(=O)[C@H](N)c3ccccc3)C(=O)N2[C@H]1C(=O)O | – | – | – | – | – | – | – | – | – | – | – | – | – | – | – | – | – | – | – | inactive | Activity [28]: inactive; Activity [29]: inactive; Activity [30]: inactive
